From patent publication US9062041B2 (Bayer Intellectual Property GmbH, priority 2011, dated 2015)
pIC50: −log10 of the molar value.

Experiments:
Format in all cases: cell-based
human PGD receptor = molecular target: T1, human PGD receptor (Homo sapiens, UniProt Q13258); experiment: cAMP antagonism test on the human prostaglandin D receptor (HTRF cAMP detection); conditions: selectivity towards hDP, IC50 measured by cAMP antagonism test
T1 sequence (Q13258 1-359): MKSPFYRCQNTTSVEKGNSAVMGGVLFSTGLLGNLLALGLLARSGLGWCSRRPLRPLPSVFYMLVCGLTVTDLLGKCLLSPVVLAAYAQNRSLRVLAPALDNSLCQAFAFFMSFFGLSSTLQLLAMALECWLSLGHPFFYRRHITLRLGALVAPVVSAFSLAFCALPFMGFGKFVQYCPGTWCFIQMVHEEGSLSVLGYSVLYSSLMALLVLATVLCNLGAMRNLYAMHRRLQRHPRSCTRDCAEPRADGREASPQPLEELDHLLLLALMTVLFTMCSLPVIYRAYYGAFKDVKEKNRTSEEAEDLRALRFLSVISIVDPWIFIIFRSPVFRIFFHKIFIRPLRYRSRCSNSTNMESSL
Summary of the method: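 Cells pre-mixed with cAMP-d2 were preincubated with compound (0.8 nM–16.5 μM) for 20 min at RT, then stimulated with 3× PGD2 solution (6 nM, in PBS-IBMX) for 30 min at RT. After lysis (20 min), HTRF read at 665/620 nm; antagonism seen as rise in FRET ratio.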

[1] = molecular target: EP4 subtype of the human PGE2 receptor (Homo sapiens, UniProt P35408); experiment: cAMP antagonism test on the human EP4 receptor (HTRF cAMP detection); conditions: selectivity towards hEP4, IC50 measured by cAMP antagonism test
Summary of the method: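 Cells expressing human EP4 preincubated 20 min at RT with compound (0.8 nM–16.5 μM), then stimulated with PGE2 (0.3 nM in 3× solution, with IBMX) 60 min at RT. After lysis, cAMP measured by HTRF competition (665/620 nm ratio); antagonism seen as rise in FRET signal.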

[2] = molecular target: EP2 subtype of the human PGE2 receptor (Homo sapiens, UniProt P43116); experiment: cAMP antagonism test on the human EP2 receptor (HTRF cAMP detection); conditions: hEP2 receptor, read-out: Antagonism hEP2 IC50
Summary of the method: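 Cells expressing human EP2 preincubated 20 min at RT with compound (0.8 nM–16.5 μM), then stimulated 60 min with PGE2 (3× solution 1.5 nM) in PBS-IBMX. After 20 min lysis, cAMP measured by competitive HTRF with cAMP-d2 and Eu cryptate anti-cAMP antibody (665/620 nm ratio).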

Sequence of EP4 subtype of the human PGE2 receptor (P35408 whole entry): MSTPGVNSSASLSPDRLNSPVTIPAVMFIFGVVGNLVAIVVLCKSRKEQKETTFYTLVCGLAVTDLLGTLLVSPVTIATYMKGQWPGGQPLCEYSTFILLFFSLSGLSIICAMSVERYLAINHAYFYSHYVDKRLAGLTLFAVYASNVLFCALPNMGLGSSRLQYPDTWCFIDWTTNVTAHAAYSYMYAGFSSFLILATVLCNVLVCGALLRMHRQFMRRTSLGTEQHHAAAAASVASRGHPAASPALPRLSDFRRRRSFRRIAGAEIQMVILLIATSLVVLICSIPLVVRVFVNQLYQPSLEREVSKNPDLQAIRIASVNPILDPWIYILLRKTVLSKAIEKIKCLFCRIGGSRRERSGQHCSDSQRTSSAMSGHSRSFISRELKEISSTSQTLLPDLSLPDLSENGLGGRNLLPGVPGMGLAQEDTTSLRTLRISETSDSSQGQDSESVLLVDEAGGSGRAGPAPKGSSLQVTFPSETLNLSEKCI
Sequence of EP2 subtype of the human PGE2 receptor (P43116 whole entry): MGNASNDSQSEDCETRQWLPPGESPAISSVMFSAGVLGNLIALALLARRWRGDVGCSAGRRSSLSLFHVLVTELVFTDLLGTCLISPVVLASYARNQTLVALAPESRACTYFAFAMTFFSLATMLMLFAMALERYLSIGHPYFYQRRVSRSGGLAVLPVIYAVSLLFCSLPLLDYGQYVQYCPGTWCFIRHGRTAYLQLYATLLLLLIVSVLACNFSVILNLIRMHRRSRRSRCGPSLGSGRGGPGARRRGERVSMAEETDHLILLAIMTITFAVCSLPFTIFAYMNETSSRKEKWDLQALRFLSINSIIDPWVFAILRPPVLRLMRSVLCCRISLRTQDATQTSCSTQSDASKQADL

| Structure (SMILES) | Selectivity hEP2/hDP (human PGD receptor) | Selectivity hEP2/hEP4 [1] | pIC50 [2] |
| --- | --- | --- | --- |
| Cc1c(C(=O)NCCOCC2CC2)ccc2nn(CC3CN(C(=O)c4ccc(-c5ccc(F)cc5)cc4)C3)cc12 [Example 157, N-[2-(cyclopropylmethoxy)ethyl]-2-({1-[(4′-fluorobiphenyl-4-yl)carbonyl]azetidin-3-yl}methyl)-4-methyl-2H-indazol-5-carboxamide] | xxx (xxx > 100) | xxx (xxx > 100) | 7.87 |
| COCCNC(=O)c1cc2cn(CC3CN(C(=O)c4ccc(C(F)(F)F)c(F)c4)C3)nc2cc1C [Example 184, 2-({1-[3-fluoro-4-(trifluoromethyl)benzoyl]azetidin-3-yl}methyl)-N-(2-methoxy-ethyl)-6-methyl-2H-indazol-5-carboxamide] | xxx (xxx > 100) | xxx (xxx > 100) | 7.11 |
| COCCNC(=O)c1ccc2nn(C[C@@H]3CCN(C(=O)c4ccc(OC(F)(F)F)cc4)C3)cc2c1C [Example 218, N-(2-methoxyethyl)-4-methyl-2-({(R)-1-[4-(trifluoromethoxy)benzoyl]-pyrrolidin-3-yl}methyl)-2H-indazol-5-carboxamide] | xxx (xxx > 100) | xxx (xxx > 100) | 6.89 |
| Cc1ccc(C(=O)N2CCC(Cn3cc4c(C)c(C(=O)NCCOCC(F)(F)F)ccc4n3)CC2)cc1 [Example 91, 4-methyl-2-{[1-(4-methylbenzoyl)-piperidin-4-yl]-methyl}-N-[2-(2,2,2-trifluoro-ethoxy)ethyl]-2H-indazol-5-carboxamide] | xxx (xxx > 100) | xxx (xxx > 100) | 7.69 |
| Cc1c(C(=O)NCC(F)(F)F)ccc2nn(CC3CCN(C(=O)c4cn(C)c5ccccc45)CC3)cc12 [Example 289, 4-methyl-2-({1-[(1-methyl-1H-indol-3-yl)carbonyl]piperidin-4-yl}methyl)-N-(2,2,2-trifluoroethyl)-2H-indazol-5-carboxamide] | xxx (xxx > 100) | xxx (xxx > 100) | 7.29 |
| COCCNC(=O)c1ccc2nn(CC3CCN(C(=O)c4ccc(-c5ccccc5)c(F)c4)CC3)cc2c1C [Example 49, 2-({1-[(2-fluoro-biphenyl-4-yl)-carbonyl]piperidin-4-yl}methyl)-N-(2-methoxyethyl)-4-methyl-2H-indazol-5-carboxamide] | xxx (xxx > 100) | xxx (xxx > 100) | 8.19 |
| COCCNC(=O)c1ccc2nn(CC3CCN(C(=O)c4ccc(-c5ccc(C)c(C)c5)cc4F)CC3)cc2c1C [Example 363, 2-({1-[(3-fluoro-3′,4′-dimethylbiphenyl-4-yl)carbonyl]piperidin-4-yl}methyl)-N-(2-methoxyethyl)-4-methyl-2H-indazol-5-carboxamide] | xxx (xxx > 100) | xxx (xxx > 100) | 8.26 |
| COCCNC(=O)c1ccc2nn(CC3CCN(C(=O)c4ccc(-c5ccc(OC)cc5)cc4F)CC3)cc2c1C [Example 43, 2-({1-[(3-fluoro-4′-methoxybiphenyl-4-yl)carbonyl]piperidin-4-yl}methyl)-N-(2-methoxyethyl)-4-methyl-2H-indazol-5-carboxamide] | xxx (xxx > 100) | xxx (xxx > 100) | 8.32 |
| COCCNC(=O)c1ccc2nn(CC3CCN(C(=O)c4ccc(Oc5ccncc5)cc4)CC3)cc2c1C [Example 51, N-(2-methoxyethyl)-4-methyl-2-({1-[4-(pyridyloxy)benzoyl]piperidin-4-yl}-methyl)-2H-indazol-5-carboxamide] | xxx (xxx > 100) | xxx (xxx > 100) | 7.22 |
| COCCNC(=O)c1ccc2nn(CC3CCN(C(=O)c4ccc(Oc5ccc(C(F)(F)F)nc5)cc4)CC3)cc2c1C [Example 349, N-(2-methoxyethyl)-4-methyl-2-{[1-(4-{[6-(trifluoromethyl)pyridin-3-yl]oxy}-benzoyl)piperidin-4-yl]methyl}-2H-indazol-5-carboxamide] | xxx (xxx > 100) | xxx (xxx > 100) | 8.32 |
| COCCNC(=O)c1ccc2nn(CC3CCN(C(=O)c4ccc(Oc5ccccc5)cc4)CC3)cc2c1C [Example 19, N-(2-methoxyethyl)-4-methyl-2-{[1-(4-phenoxybenzoyl)-piperidin-4-yl]-methyl}-2H-indazol-5-carboxamide] | xxx (xxx > 100) | xxx (xxx > 100) | 8.07 |
| COCCNC(=O)c1ccc2nn(CC3CCN(C(=O)c4ccc(-c5ccc(C#N)cc5C)cc4)CC3)cc2c1C [Example 367, 2-({1-[(4′-cyano-2′-methylbiphenyl-4-yl)carbonyl]piperidin-4-yl}methyl)-N-(2-methoxyethyl)-4-methyl-2H-indazol-5-carboxamide] | xxx (xxx > 100) | xxx (xxx > 100) | 8.23 |
| COCCNC(=O)c1ccc2nn(CC3CCN(C(=O)c4ccc(-c5cccnc5)c(C)c4)CC3)cc2c1C [Example 392, N-(2-methoxyethyl)-4-methyl-2-({1-[3-methyl-4-(3-pyridyl)benzoyl]piperidin-4-yl}methyl)-2H-indazol-5-carboxamide] | xxx (xxx > 100) | xxx (xxx > 100) | 7.66 |
| COCCNC(=O)c1ccc2nn(CC3CCN(C(=O)c4ccc(C5CC5)cc4)CC3)cc2c1OC(F)F [Example 228, 2-{[1-(4-cyclopropylbenzoyl)piperidin-4-yl]methyl}-4-(difluoromethoxy)-N-(2-methoxyethyl)-2H-indazol-5-carboxamide] | xxx (xxx > 100) | xxx (xxx > 100) | 8.09 |
| Cc1c(C(=O)NCCN2CCOCC2)ccc2nn(CC3CCN(C(=O)c4cccc(S(F)(F)(F)(F)F)c4)CC3)cc12 [Example 64] | x (x: 1-10) | x (x: 1-10) | 5.38 |
| COCCNC(=O)c1ccc2nn(CC3CCN(C(=O)c4ccc(Br)cc4)CC3)cc2c1C [Example 54, 2-{[1-(4-bromo-benzoyl)piperidin-4-yl]methyl}-N-(2-methoxyethyl)-4-methyl-2H-indazol-5-carboxamide] | xxx (xxx > 100) | xxx (xxx > 100) | 8.32 |
| Cc1c(C(=O)NCCOCC(F)(F)F)ccc2nn(CC3CCN(C(=O)c4ccc(C(F)(F)F)cc4)CC3)cc12 [Example 93, 4-methyl-N-[2-(2,2,2-trifluoro-ethoxy)ethyl]-2-({1-[4-(trifluoro-methyl)benzoyl]-piperidin-4-yl}-methyl)-2H-indazol-5-carboxamide] | xxx (xxx > 100) | xxx (xxx > 100) | 7.94 |
| Cc1c(C(=O)NCC2CCCCO2)ccc2nn(CC3CCN(C(=O)c4ccc(Cl)cc4)CC3)cc12 (racemic) [Example 239, (+/−)-2-{[1-(4-chlorobenzoyl)piperidin-4-yl]methyl}-4-methyl-N-(3,4,5,6-tetrahydro-2H-pyran-2-ylmethyl)-2H-indazol-5-carboxamide] | xxx (xxx > 100) | xxx (xxx > 100) | 7.57 |
| COc1ccc(-c2ccc(C(=O)N3CCC(Cn4cc5c(C)c(C(=O)NCC(F)(F)F)ccc5n4)CC3)cc2)cn1 [Example 322, 2-({1-[4-(6-methoxypyridin-3-yl)benzoyl]piperidin-4-yl}methyl)-4-methyl-N-(2,2,2-trifluoroethyl)-2H-indazol-5-carboxamide] | xxx (xxx > 100) | xxx (xxx > 100) | 7.12 |
| Cc1ccc(C(=O)N2CCC(Cn3cc4c(C)c(C(=O)NCCOCC5CC5)ccc4n3)CC2)cc1 [Example 85, N-[2-(cyclopropyl-methoxy)ethyl]-4-methyl-2-{[1-(4-methylbenzoyl)-piperidin-4-yl]-methyl}-2H-indazol-5-carboxamide] | xxx (xxx > 100) | xxx (xxx > 100) | 7.45 |
| Cc1c(C(=O)NCCOC2CC2)ccc2nn(CC3CN(C(=O)c4ccc(OC(F)(F)F)cc4)C3)cc12 [Example 136, N-[2-(cyclopropyloxy)ethyl]-4-methyl-2-({1-[4-(trifluoromethoxy)benzoyl]azetidin-3-yl}methyl)-2H-indazol-5-carboxamide] | xxx (xxx > 100) | xxx (xxx > 100) | 8.18 |
